Laboratory results published in patent US10072065B2, “Peptide-mediated delivery of immunoglobulins across the blood-brain barrier” (Mayo Foundation for Medical Education and Research, priority 2015, dated 2018).

Test system: blood-brain barrier (BBB)
Assay: Transportation of Evan's Blue (EB) across the BBB after IV Apo-I or peptide-cetuximab complex
Format: in vivo, mouse
Conditions: ~40 μL 2% EB only, IV femoral vein, brain evaluated approximately 2 hours after dye (brain number 1)
Protocol: To explore whether Apo-I transports an antibody across the BBB, the peptide or a peptide-cetuximab complex were first injected by IV followed by injection of Evan's Blue (EB; a routinely used small molecule blue dye with a molecular weight of 960.81) by IV into the femoral vein of a mouse. Cardiac perfusion was performed and the brains of the mice were removed and evaluated approximately 2 hours following injection of the dye. As a control, injection of EB only was used. The particulars of each administration are as follows: • 1) ˜40 μL 2% EB only was injected. • 2) 300 μg of Apo-I was injected first, then ˜40 μL 2% EB was injected. • 3) 600 μg of Apo-I was injected first, then ˜40 μL 2% EB was injected. • 4) 600 μg of Apo-I was mixed with 200 μg cetuximab prior to injection and then injected first, then ˜40 μL 2% EB was injected.

With `Cc1cc(-c2ccc(/N=N/c3ccc4c(S(=O)(=O)[O-])cc(S(=O)(=O)[O-])c(N)c4c3O)c(C)c2)ccc1/N=N/c1ccc2c(S(=O)(=O)[O-])cc(S(=O)(=O)[O-])c(N)c2c1O.[Na+].[Na+].[Na+].[Na+]` [EB, Evan's Blue] the “EB reaching the brain (blue coloring of brain)” value was “cannot reach the brain”.
